Measurements from US20040266747A1, “Long chain fatty alcohol substituents in antineoplastic agents” (priority 2001, published 2004).
Values after ≈ are worked out from the molar mass of the structure shown.

Columns and labels:
EA.hy 926 = test: Cytotoxic activity, MTT colorimetric cell growth assay; type: cell-based; settings: Homo sapiens; EA.hy 926 cells, 72 h cultivation with agent, 37° C.; read-out: Cell line and cyctotoxic acivity IC50, EA.hy 926
Experimental: (§1) Experiments were performed in microtiter plates (2×10^4 cells/cm^2) at 37° C. After a precultivation period of 24 h the antineoplastic agent was added and cultivation was continued for 72 h. Cell growth was determined by a colorimetric assay based on the conversion of 3-(4,5-dimethyl-2-thiazolyl)-2,5-diphenyltetrazolium (MMT) to a blue formazan product using live mitochondria according to Mosmann, J. Immunolog. Methods 1983, 65, 55.

MHEC 5T = test: as above; type: cell-based; settings: MHEC5-T; MHEC 5T cells, 72 h cultivation with agent, 37° C.; read-out: Cell line and cyctotoxic acivity IC50, MHEC 5T
Experimental: as §1

Compound: O=c1[nH]c(=O)n(COCCCCCCCCCCCCO)cc1F [Compound 3b, 5-Fluoro-1-((12′-hydroxydodecyloxy)-methyl)-uracil]
- IC50 (EA.hy 926): 45 µg/mL (≈ 131 µM)
- IC50 (MHEC 5T): 14 µg/mL (≈ 40.6 µM)
